In patent US20250230193A1, “CYCLIC COMPOUND HAVING SELECTIVE KRAS INHIBITORY EFFECT ON HRAS AND NRAS” (CHUGAI SEIYAKU KABUSHIKI KAISHA, priority 2022, published 2025):

What was measured:
[1] = target: GDP-bound NRAS wild-type protein (Homo sapiens, UniProt P01111); test: Binding to NRAS by surface plasmon resonance (SPR), Single Cycle Kinetics; conditions: SPR; KD ratio class
[2] = tested on: human lung cancer strain NCI-H441; test: cells; conditions: NCI-H441, 96 h, read-out: NCI-H441 IC50 (nM)
[3] = target: GDP-bound HRAS wild-type protein (Homo sapiens, UniProt P01112); test: Binding to HRAS by surface plasmon resonance (SPR), Single Cycle Kinetics; conditions: SPR; KD ratio class
GDP-bound HRAS wild-type protein, sequence (P01112 whole entry): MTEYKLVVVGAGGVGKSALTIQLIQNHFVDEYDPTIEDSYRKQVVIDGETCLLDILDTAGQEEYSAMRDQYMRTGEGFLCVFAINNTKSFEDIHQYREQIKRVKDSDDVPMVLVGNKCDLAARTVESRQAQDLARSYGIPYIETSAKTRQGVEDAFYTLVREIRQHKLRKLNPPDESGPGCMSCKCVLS

GDP-bound NRAS wild-type protein, sequence (P01111 whole entry): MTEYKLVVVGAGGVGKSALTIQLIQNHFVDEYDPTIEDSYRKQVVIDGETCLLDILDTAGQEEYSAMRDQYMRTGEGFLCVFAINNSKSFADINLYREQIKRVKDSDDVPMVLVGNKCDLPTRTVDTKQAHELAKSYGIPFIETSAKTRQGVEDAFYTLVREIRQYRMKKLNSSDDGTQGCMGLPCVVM

Compound	IC50 [2]	NRAS/KRAS (ratio of KD value for GDP-bound NRAS wild-type protein to KD value for KRAS) [1]	HRAS/KRAS (ratio of KD value for GDP-bound HRAS wild-type protein to KD value for KRAS) [3]
CCO[C@@H]1C[C@H]2C(=O)NC3(CCC3)C(=O)N(C)[C@@H](C3CCCC3)C(=O)N(C)[C@H](C)CC(=O)N(C)[C@@H](CC3CC3)C(=O)N[C@@H]([C@@H](C)CC)C(=O)N(C)CC(=O)N(C)[C@H]3C/C=C\CCN(C3=O)[C@@H](Cc3ccc(F)cc3C)C(=O)N(C)CC(=O)N[C@@H](CCc3cc(F)c(C(F)(F)F)c(F)c3)C(=O)N2C1 [PP1489]	118 nM	B (a compound having 3 or more and less than 10 is denoted as B)	B (a compound having 3 or more and less than 10 is denoted as B)
CCO[C@@H]1C[C@H]2C(=O)NC3(CCC3)C(=O)N(C)[C@@H](C3CCCC3)C(=O)N(C)[C@H](C)CC(=O)N(C)[C@@H](CC3CC3)C(=O)N[C@@H]([C@@H](C)CC)C(=O)N(C)CC(=O)N(C)[C@H]3C/C=C\CCN(C3=O)[C@@H](Cc3ccc(F)cc3)C(=O)N(C)CC(=O)N[C@@H](CCc3cc(F)c(C(F)(F)F)c(F)c3)C(=O)N2C1 [PP1490]	48.9 nM	B (a compound having 3 or more and less than 10 is denoted as B)	B (a compound having 3 or more and less than 10 is denoted as B)
CCO[C@@H]1C[C@H]2C(=O)NC3(CCC3)C(=O)N(C)[C@@H](C3CCCC3)C(=O)N(C)[C@H](C)CC(=O)N(C)[C@@H](CC3CCCC3)C(=O)N[C@@H]([C@@H](C)CC)C(=O)N(C)CC(=O)N(C)[C@H]3C/C=C\CCN(C3=O)[C@@H](Cc3ccc(F)cc3)C(=O)N(C)CC(=O)N[C@@H](CCc3cc(F)c(C(F)(F)F)c(F)c3)C(=O)N2C1 [PP1492]	129 nM	B (a compound having 3 or more and less than 10 is denoted as B)	B (a compound having 3 or more and less than 10 is denoted as B)
CCO[C@@H]1C[C@H]2C(=O)NC3(CCC3)C(=O)N(C)[C@@H](C3CCCC3)C(=O)N(C)[C@H](C)CC(=O)N(C)[C@@H](CC(C)C)C(=O)N[C@@H]([C@@H](C)CC)C(=O)N(C)CC(=O)N(C)[C@H]3C/C=C\CCN(C3=O)[C@@H](Cc3ccc(F)cc3C)C(=O)N(C)CC(=O)N[C@@H](CCc3cc(F)c(C(F)(F)F)c(F)c3)C(=O)N2C1 [PP1493]	135 nM	B (a compound having 3 or more and less than 10 is denoted as B)	B (a compound having 3 or more and less than 10 is denoted as B)
CCO[C@@H]1C[C@H]2C(=O)NC3(CCC3)C(=O)N(C)[C@@H](C3CCCC3)C(=O)N(C)[C@H](C)CC(=O)N(C)[C@@H](CC(C)C)C(=O)N[C@@H]([C@@H](C)CC)C(=O)N(C)CC(=O)N(C)[C@H]3C/C=C\CCN(C3=O)[C@@H](Cc3ccc(F)cc3)C(=O)N(C)CC(=O)N[C@@H](CCc3cc(F)c(C(F)(F)F)c(F)c3)C(=O)N2C1 [PP1494]	142 nM	B (a compound having 3 or more and less than 10 is denoted as B)	B (a compound having 3 or more and less than 10 is denoted as B)
CCO[C@@H]1C[C@H]2C(=O)NC3(CCC3)C(=O)N(C)[C@@H](C3CCCC3)C(=O)N(C)[C@H](C(=O)N3CCOCC3)CC(=O)N(C)[C@@H](CC3CC3)C(=O)N[C@@H]([C@@H](C)CC)C(=O)N(C)CC(=O)N(C)[C@H]3C/C=C\CCN(C3=O)[C@@H](Cc3ccc(F)cc3C)C(=O)N(C)CC(=O)N[C@@H](CCc3cc(F)c(C(F)(F)F)c(F)c3)C(=O)N2C1 [PP1495]	98.7 nM	A (a compound having 10 or more and less than 20 is denoted as A)	B (a compound having 3 or more and less than 10 is denoted as B)

More lines, main results first:

IC50 [2]	Compound	NRAS/KRAS (ratio of KD value for GDP-bound NRAS wild-type protein to KD value for KRAS) [1]	HRAS/KRAS (ratio of KD value for GDP-bound HRAS wild-type protein to KD value for KRAS) [3]
36.7 nM	CCO[C@@H]1C[C@H]2C(=O)NC3(CCC3)C(=O)N(C)[C@@H](C3CCCC3)C(=O)N(C)[C@H](C(=O)N3CCOCC3)CC(=O)N(C)[C@@H](CC3CC3)C(=O)N[C@@H]([C@@H](C)CC)C(=O)N(C)CC(=O)N(C)[C@H]3C/C=C\CCN(C3=O)[C@@H](Cc3ccc(F)cc3)C(=O)N(C)CC(=O)N[C@@H](CCc3cc(F)c(C(F)(F)F)c(F)c3)C(=O)N2C1 [PP1496]	A (a compound having 10 or more and less than 20 is denoted as A)	B (a compound having 3 or more and less than 10 is denoted as B)
2 nM	CC[C@H](C)[C@@H]1NC(=O)[C@H](CC2CCCC2)N(C)C(=O)C[C@@H](C(=O)N(C)C)N(C)C(=O)[C@H](C2CCCC2)N(C)C(=O)C2(CCC2)NC(=O)[C@@H]2C[C@@H](F)CN2C(=O)[C@H](CCc2cc(F)c(C(F)(F)F)c(F)c2)NC(=O)CN(C)C(=O)[C@H](Cc2ccc(C(F)(F)F)cc2)N2CC/C=C\C[C@@H](C2=O)N(C)C(=O)CN(C)C1=O [PP1502]	A (a compound having 10 or more and less than 20 is denoted as A)	A (a compound having 10 or more and less than 20 is denoted as A)
38 nM	CC[C@H](C)[C@@H]1NC(=O)[C@H](CC2CC2)N(C)C(=O)C[C@@H](C(=O)N(C)C)N(C)C(=O)[C@H](C2CCCC2)N(C)C(=O)C2(CC(C)(C)C2)NC(=O)[C@@H]2C[C@@H](C(F)(F)F)CN2C(=O)[C@H](CCc2cc(F)c(C(F)(F)F)c(F)c2)NC(=O)CN(C)C(=O)[C@H](Cc2ccc(C(F)(F)F)cc2)N2CC/C=C\C[C@@H](C2=O)N(C)C(=O)CN(C)C1=O [PP1504]	A (a compound having 10 or more and less than 20 is denoted as A)	A (a compound having 10 or more and less than 20 is denoted as A)
73.4 nM	CC[C@H](C)[C@@H]1NC(=O)[C@H](CC2CC2)N(C)C(=O)C[C@@H](C(=O)N2CCCC2)N(C)C(=O)[C@H](C2CCCC2)N(C)C(=O)C2(CCCC2)NC(=O)[C@@H]2C[C@@H](C(F)(F)F)CN2C(=O)[C@H](CCc2cc(F)c(C(F)(F)F)c(F)c2)NC(=O)CN(C)C(=O)[C@H](Cc2ccc(C(F)(F)F)cc2)N2CC/C=C\C[C@@H](C2=O)N(C)C(=O)CN(C)C1=O [PP1506]	AA (a compound having 20 or more is denoted as AA)	A (a compound having 10 or more and less than 20 is denoted as A)
16.2 nM	CC[C@H](C)[C@@H]1NC(=O)[C@H](CC2CC2)N(C)C(=O)C[C@@H](C(=O)N(C)C)N(C)C(=O)[C@H](C2CCCC2)N(C)C(=O)C2(CC(C)(C)C2)NC(=O)[C@@H]2C[C@@H](C(F)(F)F)CN2C(=O)[C@H](CCc2cc(F)c(C(F)(F)F)c(F)c2)NC(=O)CN(C)C(=O)[C@H](Cc2ccc(F)cc2)N2CC/C=C\C[C@@H](C2=O)N(C)C(=O)CN(C)C1=O [PP1507]	A (a compound having 10 or more and less than 20 is denoted as A)	A (a compound having 10 or more and less than 20 is denoted as A)
28.1 nM	CC[C@H](C)[C@@H]1NC(=O)[C@H](CC2CCCC2)N(C)C(=O)C[C@@H](C(=O)N(C)C)N(C)C(=O)[C@H](C2CCCC2)N(C)C(=O)C2(CCC2)NC(=O)[C@@H]2C[C@@H](C(F)(F)F)CN2C(=O)[C@H](CCc2cc(F)c(C(F)(F)F)c(F)c2)NC(=O)CN(C)C(=O)[C@H](Cc2ccc(F)cc2)N2CC/C=C\C[C@@H](C2=O)N(C)C(=O)CN(C)C1=O [PP1508]	A (a compound having 10 or more and less than 20 is denoted as A)	A (a compound having 10 or more and less than 20 is denoted as A)
67.9 nM	CC[C@H](C)[C@@H]1NC(=O)[C@H](CC2CC2)N(C)C(=O)C[C@@H](C(=O)N2CCCC2)N(C)C(=O)[C@H](C2CCCC2)N(C)C(=O)C2(CCCC2)NC(=O)[C@@H]2C[C@@H](C(F)(F)F)CN2C(=O)[C@H](CCc2cc(F)c(C(F)(F)F)c(F)c2)NC(=O)CN(C)C(=O)[C@H](Cc2ccc(F)cc2)N2CC/C=C\C[C@@H](C2=O)N(C)C(=O)CN(C)C1=O [PP1509]	A (a compound having 10 or more and less than 20 is denoted as A)	A (a compound having 10 or more and less than 20 is denoted as A)
72.7 nM	CCO[C@@H]1C[C@H]2C(=O)NC3(CCC3)C(=O)N(C)[C@@H](C(CC)CC)C(=O)N(C)[C@H](C(=O)N(C)C)CC(=O)N(C)[C@@H](CC3CC3)C(=O)N[C@@H]([C@@H](C)CC)C(=O)N(C)CC(=O)N(C)[C@H]3C/C=C\CCN(C3=O)[C@@H](Cc3ccc(F)cc3C)C(=O)N(C)CC(=O)N[C@@H](CCc3cc(F)c(C(F)(F)F)c(F)c3)C(=O)N2C1 [PP1514]	A (a compound having 10 or more and less than 20 is denoted as A)	A (a compound having 10 or more and less than 20 is denoted as A)
45.7 nM	CCO[C@@H]1C[C@H]2C(=O)NC3(CCC3)C(=O)N(C)[C@@H](C(CC)CC)C(=O)N(C)[C@H](C(=O)N(C)C)CC(=O)N(C)[C@@H](CC3CCCC3)C(=O)N[C@@H]([C@@H](C)CC)C(=O)N(C)CC(=O)N(C)[C@H]3C/C=C\CCN(C3=O)[C@@H](Cc3ccc(F)cc3C)C(=O)N(C)CC(=O)N[C@@H](CCc3cc(F)c(C(F)(F)F)c(F)c3)C(=O)N2C1 [PP1516]	A (a compound having 10 or more and less than 20 is denoted as A)	B (a compound having 3 or more and less than 10 is denoted as B)
